Literature values as cited in patent publication US6500409B1, “Synergistic antiplaque/antigingivitis oral composition” (Colgate Palmolive Company, priority 2000, dated 2002).

Legend:
S. mutans = details: in vitro
[1] = test system: plaque adherence to teeth; details: in vitro

Compound	Bactericidal activity in MIC test, in words (S. mutans)	Inhibition of plaque adherence to teeth, in words [1]
C=CCc1ccc(O)c(-c2cc(CC=C)ccc2O)c1 [magnolol]	bactericidal	not found to be inhibitory
C=CCc1ccc(O)c(-c2ccc(O)c(CC=C)c2)c1 [honokiol]	bactericidal	not found to be inhibitory
